Patent US10925887B2, “Steroid saponins with anti-cancer activity” (Oncology Research International Limited, priority 2017, dated 2021)

How the values were obtained:
Type in all cases: cell-based
[1] = tested on: washed human erythrocytes; experiment: in vitro haemolysis assay; details: for HD50 (50% haemolytic dose): washed human erythrocytes, 3 hours at 37° C.
Method: Haemolysis is a clinical condition where the red cell membrane is irreversibly damaged causing the release of its haemoglobin content. The in vitro haemolysis assay is a simple test to determine the haemolytic potential of a test substance on isolated and washed red blood cells.
In this example three compounds identified as compound A, compound C disodium salt and compound B ½ maleate salt and Saponin from Quillaja bark (S4521) were tested for haemolytic potential using washed human erythrocytes. The compounds were tested over a dose curve with a maximum concentration of […] and a lowest concentration of […]. The concentration range is […].
Briefly, whole blood (40 mL) was collected from a single human volunteer into multiple EDT vacutainer tubes. The red blood cells (RBC) were washed and isolated from plasma components by three centrifugations at 3000 rpm for 5 minutes in isotonic 0.9% sodium chloride. After the final wash, 0.1 mL volumes of red blood cells were added to each treatment tube.
The test compounds compound A, compound C disodium salt and compound B % maleate salt and the reference article (Saponin S4521) were initially formulated as 100× stock solutions at a concentration of 10 mg/mL in the appropriate diluents (DMSO for compounds, 0.9% NaCl for Saponin S4521). These stock solutions were then further diluted 1:100 in 0.9% NaCl to prepare the highest concentration of […] in 1% DMSO/NaCl. The highest concentration solutions were further diluted serially 1:2 in 1% DMSONaC1 to achieve lower concentrations of 50, 25, 12.5, 6.25, 3.125, 1.562 and 0.781 pg/ml of active component.
The positive control article (hypertonic solution of […]) was formulated by weighing 2.92 g NaCl in 10 mL MilliQ water. The negative control article (isotonic solution of 0.154M NaCl) was formulated on the day of use by dissolving 0.09 g NaCl into 10 mL MilliQ water. The vehicle used to dilute the test articles, 1% DMSO/NaCl, was used as the reagent blank in the assay.
Tubes containing cells and treatments were incubated at 37° C. with gentle agitation in an orbital mixer for 3 hours. At completion of the incubation, tubes were centrifuged at 3000 rpm for 5 minutes and 200 ptL aliquots of supernatant from each tube were transferred to a 96-well microplate for measurement of absorbance at 535 nm. A layout for the 96-Nell microplate is presented in Appendix 1. A 1% DMSO/NaCl vehicle in the absence of blood was used as the reagent blank in the assay.
Mean values for the negative (0.154M NaCl), positive (5M NaCl) and blank triplicate wells were determined. These were then used to calculate the % haemolysis for each sample according to the following formula: […]
Calculations of 50% haemolytic dose (HD50) was performed by non-linear regression analyses using a log(agonist) vs normalized response variable slope curve fit on GraphPad Prism for Mac OS X (Version 5.0c, GraphPad Software, California, USA).

MIA PaCa-2 = experiment: CellTiter-Blue cell growth inhibition assay, MIA PaCa-2; details: Homo sapiens, MIA PaCa-2, 48 h
Method: (§1) Duplicate experiments were performed using the CellTiter-Blue® Cell Viability Assay to determine IC50 values for Compound A, Compound B and Compound C against each cell line. The general methodology for preparation of test articles described in Example 6 was used. The test compounds compound A, compound C disodium salt and compound B ½ maleate salt were initially formulated as 100× stock solutions at a concentration of 10 mg/mL in the appropriate diluents (DMSO for compounds). These stock solutions were then further diluted in cell culture medium to achieve lower concentrations of 100, 50, 25, 12.5, 6.25 and 3.125, 1.563, 0.781, 0.390 and 0.195 μM of active component. The specific cancer cells were A549, HCT 116, MCF-7 and MIA PaCa-2.
(§2) Human cancer cell types were: HTC-116 (colon); A549 (Lung); HT29 (colon); MCF-7; Mia PaCa-2 (pancreas)
(§3) Cells were seeded in duplicate at 3-4,000 per microtitre well in 50 μl of cell culture medium . After 24 hours, 50 μL of test article or vehicle control prepared in medium at 2× required concentration were added to each well. Cancer cells were allowed to grow in the presence of drug for 48 hours before cell growth relative to untreated control wells was determined with CellTiter-Blue® Cell Viability Assay.
(§4) IC50 values were calculated using Prism 6 for Mac OS X using a nonlinear regression (log(inhibitor) vs. response—Variable slope (four parameters)

PC-3 = experiment: CellTiter-Blue cell growth inhibition assay, PC-3; details: Homo sapiens, PC-3, 48 h
A549 = experiment: CellTiter-Blue cell growth inhibition assay, A549; details: Homo sapiens, A549, 48 h
Method: as §1, §2, §3, §4

HCT 116 = experiment: CellTiter-Blue cell growth inhibition assay, HCT 116; details: Homo sapiens, HCT-116, 48 h
Method: as §1, §2, §3, §4

MCF-7 = experiment: CellTiter-Blue cell growth inhibition assay, MCF-7; details: Homo sapiens, MCF7, 48 h
Method: as §1, §2, §3, §4

[2] = MIA PaCa-2, Average ± SEM, 48 hours
[3] = MIA PaCa-2, Experiment 1, 48 hours
[4] = MIA PaCa-2, Experiment 2, 48 hours
[5] = HCT 116, Average ± SEM, 48 hours
[6] = HCT 116, Experiment 1, 48 hours
[7] = HCT 116, Experiment 2, 48 hours

Compound	percent haemolysis ([1]; concentration 0.781 μg/ml)	percent haemolysis ([1]; concentration 1.562 μg/ml)	percent haemolysis ([1]; concentration 3.125 μg/ml)	percent haemolysis ([1]; concentration 6.25 μg/ml)	percent haemolysis ([1]; concentration 12.5 μg/ml)	IC50 (MIA PaCa-2; [2])	IC50 (MIA PaCa-2; [3])	IC50 (MIA PaCa-2; [4])	IC50 (PC-3; PC-3, Average ± SEM, 48 hours)	IC50 (PC-3; PC-3, Experiment 1, 48 hours)	IC50 (PC-3; PC-3, Experiment 2, 48 hours)	IC50 (A549; A549, Average ± SEM, 48 hours)	IC50 (A549; A549, Experiment 1, 48 hours)	IC50 (A549; A549, Experiment 2, 48 hours)	IC50 (HCT 116; [5])	IC50 (HCT 116; [6])	IC50 (HCT 116; [7])	IC50 (MCF-7; MCF-7, Average ± SEM, 48 hours)	IC50 (MCF-7; MCF-7, Experiment 1, 48 hours)	IC50 (MCF-7; MCF-7, Experiment 2, 48 hours)	also measured
CC1O[C@@H](OC2C(O)[C@H](O)C(COP(=O)([O-])O)O[C@H]2O[C@H]2CC[C@@]3(C)C(=CC[C@H]4[C@@H]5C[C@@H]6O[C@]7(CC[C@@H](C)CO7)[C@@H](C)[C@@H]6[C@@]5(C)CC[C@@H]43)C2)C(O)C(O)[C@H]1O.[Na+] (stereo partly drawn) [Compound C disodium salt]	1.0%	1.9%	0.5%	1.6%	0.5%	–	–	–	–	–	–	–	–	–	–	–	–	–	–	–	percent haemolysis ([1]; concentration 25 μg/ml): 1.8%; percent haemolysis ([1]; concentration 50 μg/ml): 2.9%; percent haemolysis ([1]; concentration 100 μg/ml): 51.9%; HD50 (50% haemolytic dose) [1]: 145.70 µg/mL
CC1O[C@@H](OC2C(O)[C@H](O)C(COP(=O)(O)O)O[C@H]2O[C@H]2CC[C@@]3(C)C(=CC[C@H]4[C@@H]5C[C@@H]6O[C@]7(CC[C@@H](C)CO7)[C@@H](C)[C@@H]6[C@@]5(C)CC[C@@H]43)C2)C(O)C(O)[C@H]1O (stereo partly drawn) [Compound C]	–	–	–	–	–	3.04 ± 0.49 µM	3.52 µM	2.55 µM	3.25 ± 1.07 µM	4.32 µM	2.18 µM	2 ± 0.47 µM	2.46 µM	1.53 µM	3.04 ± 1.05 µM	4.08 µM	1.99 µM	4.17 ± 1.29 µM	5.45 µM	2.88 µM	–
CC1O[C@@H](OC2C(O)[C@H](O)C(COC(=O)[C@@H](N)C(C)C)O[C@H]2O[C@H]2CC[C@@]3(C)C(=CC[C@H]4[C@@H]5C[C@@H]6O[C@]7(CC[C@@H](C)CO7)[C@@H](C)[C@@H]6[C@@]5(C)CC[C@@H]43)C2)C(O)C(O)[C@H]1O (stereo partly drawn) [Compound B]	–	–	–	–	–	9.39 ± 1.77 µM	11.2 µM	7.62 µM	11.7 ± 0.7 µM	12.4 µM	11 µM	10.2 ± 0.31 µM	9.86 µM	10.5 µM	12.4 ± 0.72 µM	11.7 µM	13.1 µM	15 ± 0.32 µM	14.7 µM	15.3 µM	–
CC1O[C@@H](OC2C(O)[C@H](O)C(CO)O[C@H]2O[C@H]2CC[C@@]3(C)C(=CC[C@H]4[C@@H]5C[C@@H]6O[C@]7(CC[C@@H](C)CO7)[C@@H](C)[C@@H]6[C@@]5(C)CC[C@@H]43)C2)C(O)C(O)[C@H]1O (stereo partly drawn) [Compound A, diosgenyl α-L-rhamnopyranosyl-(1→2)-β-D-glucopyranoside, reference compound]	−0.3%	0.5%	−0.1%	3.2%	13.4%	5.63 ± 0.55 µM	6.17 µM	5.08 µM	6.14 ± 0.29 µM	6.42 µM	5.85 µM	4.17 ± 0.57 µM	4.74 µM	3.6 µM	5.1 ± 0.08 µM	5.17 µM	5.02 µM	7.65 ± 0.27 µM	7.91 µM	7.38 µM	percent haemolysis ([1]; concentration 25 μg/ml): 36.0%; percent haemolysis ([1]; concentration 50 μg/ml): 86.7%; percent haemolysis ([1]; concentration 100 μg/ml): 103.2%; HD50 (50% haemolytic dose) [1]: 31.57 µg/mL
